Patent publication US9617263B2, “Phenyl-triazolo-pyridine compounds” (Eli Lilly and Company, priority 2014, dated 2017)
pEC50: −log10 of the molar value.

Target: T1, mGPR40 (Mus musculus, UniProt Q76JU9)
T1 construct: host or cells: U2OS
Experiment: Mouse beta-arrestin agonist assay with 1% FBS (PathHunter, U2OS mFFAR1)
Assay type: cell-based
Excerpt: Human embryonic kidney (hEK293)-hFFAR1 cells are purchased from DiscoveRx. Human osteosarcoma (U2OS) cells expressing mFFAR1 are developed by DiscoveRX. These cells co-express the Prolink (PK)-tagged GPR40 and the Enzyme Acceptor (EA)-tagged beta-arrestin fusion proteins. If activation of the GPR40 stimulates beta-arrestin recruitment, it would force complementation of the beta galactosidase (B-gal) enzyme fragments, forming a B-gal enzyme that generates a chemiluminescent signal using the DiscoveRx PathHunter detection kit. Cells are incubated overnight at 5,000 cells/well in 384 well plates in culture media containing 1% FBS (fetal bovine serum). Serial diluted compounds in DMSO (2× dilutions to generate 20 concentrations) are step down diluted in culture media containing 1% FBS (fetal bovine serum) and added to cells with a final top concentration starting of 100 μM. After addition of compounds, cells are incubated for 90 min at 37° C. in 5% CO2 incubator, and DiscoveRX kit detection reagents are added. Measurement of the chemiluminescent signal is ascertained with the Envision reader, after a 1-hour incubation at room temperature. Data are fit to a 4 parameter-fit logistics to determine EC50 values; % activity is measured versus maximum response to TAK875 at 1 μM.

T1 sequence (Q76JU9 whole entry): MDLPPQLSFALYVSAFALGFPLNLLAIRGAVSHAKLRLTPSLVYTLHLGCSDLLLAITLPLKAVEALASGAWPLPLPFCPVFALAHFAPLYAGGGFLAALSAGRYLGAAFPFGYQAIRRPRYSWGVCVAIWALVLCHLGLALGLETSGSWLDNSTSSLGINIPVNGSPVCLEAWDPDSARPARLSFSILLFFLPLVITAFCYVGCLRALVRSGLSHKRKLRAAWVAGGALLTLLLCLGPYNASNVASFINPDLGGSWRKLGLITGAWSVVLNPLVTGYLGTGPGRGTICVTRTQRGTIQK
T1 sequence (P32121 whole entry partner): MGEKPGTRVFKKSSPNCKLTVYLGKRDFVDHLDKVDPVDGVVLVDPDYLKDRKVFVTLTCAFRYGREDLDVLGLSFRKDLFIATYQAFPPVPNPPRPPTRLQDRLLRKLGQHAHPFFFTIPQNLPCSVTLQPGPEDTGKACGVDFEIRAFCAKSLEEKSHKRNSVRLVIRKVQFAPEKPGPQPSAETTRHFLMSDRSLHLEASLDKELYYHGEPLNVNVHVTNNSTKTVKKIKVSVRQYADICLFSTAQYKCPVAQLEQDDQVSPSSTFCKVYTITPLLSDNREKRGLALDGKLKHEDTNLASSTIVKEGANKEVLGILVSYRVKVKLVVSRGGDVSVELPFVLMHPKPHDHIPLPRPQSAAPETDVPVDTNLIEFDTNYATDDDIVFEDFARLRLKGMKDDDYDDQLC

pEC50 (1% FBS, 90 min, read-out: mGPR40 b-arrestin EC50): 8.40
mGPR40 b-arrestin % stimulation max (FA) (versus maximum response to TAK875 at 1 μM): 160%
SMILES: CC#C[C@@H](CC(=O)O)c1ccc(OCc2cc(-c3ccccc3C)cn3ncnc23)cc1 [Example 1, (S)-3-[4-(6-o-Tolyl-[1,2,4]triazolo[1,5-a]pyridin-8-ylmethoxy)-phenyl]-hex-4-ynoic acid]
